In US8906829B2, “Synergistic algicidal compositions including hydrazone derivatives and copper” (Dow AgroSciences LLC, priority 2010, dated 2014):

Key:
C. reinhardtii CC-1928 = assay: Effect of copper on activity of hydrazones: in vitro growth inhibition of C. reinhardtii in TAP Cu minus / TAP Cu plus medium (Example 10); type: cell-based, Chlamydomonas reinhardtii; conditions: test compound 1 μg/mL, 48 h; for inhibition of growth at 1 µg/mL: Chlamydomonas reinhardtii, TAP Cu minus medium, read-out: % Inhn. Minus Copper Observed; for % Inhn. Plus Copper Observed: TAP Cu plus medium (CuCl2)
Protocol: In vitro toxicity assays against C. reinhardtii CC-1928 (wild type mt+137c green in dark subclone) obtained from the Chlamydomonas Resource Center at Duke University were conducted using TAP liquid growth medium described by Gorman and Levine Proc. Natl. Acad. Sci. USA 1965, 54, 1665-1669 except that CuSO4.5H2O, normally included as a component of Hutner's trace element stock solution (Hutner et al. Proc. Am. Philos. Soc. 1950, 94, 152-170), was omitted. The TAP medium lacking Cu (TAP Cu minus) was prepared by adding 400 mg NH4Cl, 10 mL of 100× Tris-Acetate (242 g Tris-base and 100 mL glacial acetic acid in 1000 mL milli Q water), and 8.3 mL of 120.5× phosphate buffer (14.34 g K2HPO4 and 7.26 g KH2PO4 in 1000 mL milli Q water) to milli Q water to make a total volume of 1 liter. The medium was treated with 0.5 g Chelex 100 resin (Bio-Rad Analytical grade, 50-100 mesh, sodium form, cat#142-2822) by stirring at room temperature for 1 hour. 900 mL were decanted and 45.9 mg of CaCl2.2H2O, 90 mg of MgSO4.7H2O and 0.9 mL Hutner's trace elements lacking CuSO4.5H2O were added and the solution was filter-sterilized. Medium containing copper (TAP Cu plus) was prepared by adding CuCl2.2H2O to the TAP Cu minus medium at 20 μM. Test compounds were dissolved in dimethylsulfoxide (DMSO) at 2 mg/mL then dilutions in TAP Cu minus and TAP Cu plus media were prepared in sterilized microcentrifuge tubes at 2 μg/mL. 100 μL aliquots of diluted compound were dispensed into flat-bottomed 96-well microtiter plates. C. reinhardtii was maintained under 12 h of light on TAP agar plates at 18° C. A loopful of cells was added to 50 mL of TAP Cu minus medium and the culture incubated with shaking at 200 rpm at 27° C. for 24 h. The culture (10 to 20 mL aliquot) was centrifuged in a bench centrifuge at 2000 rpm for 2 min. The resulting cell pellet was resuspended in 5 mL sterile milli Q water (which had been treated with Chelex 100 resin using 0.5 g resin per liter of water by stirring at room temperature for 1 h), and recentrifuged. The cells were resuspended in TAP Cu minus medium, and the suspension adjusted to 2×10^5 spores per mL. Microtiter plates containing compounds as described above were inoculated with 100 μL of this cell suspension and the plates incubated at 27° C. for 48 h before assessing algal growth by measuring light scattering in a NepheloStar plate-reader. Growth inhibition was determined by comparing growth in the presence of test compound with growth in control wells lacking test compound. Results for growth inhibition by test compounds at 1 μg/mL in TAP Cu plus medium (% Inhn Plus Copper Observed) were compared with predicted values (% Inhn Plus Copper Predicted) that were calculated using the formula set forth by S. R. Colby in Weeds 1967, 15, 20-22 based on results obtained for the same compounds in TAP Cu minus medium (% Inhn Minus Copper Observed). […] Results illustrate that hydrazones and copper produce a synergistic algicidal effect towards C. reinhardtii.

C. reinhardtii = assay: Growth inhibition of C. reinhardtii by hydrazones and isolated metal-hydrazone complexes, TAP Cu minus medium (Example 12); type: cell-based, Chlamydomonas reinhardtii; conditions: for inhibition of growth at 1 µg/mL: Chlamydomonas reinhardtii, parent hydrazone 1 μg/mL, read-out: Hydrazone % Inhn.
Protocol: In vitro toxicity assays against C. reinhardtii CC-1928 (wild type mt+137c green in dark subclone) obtained from the Chlamydomonas Resource Center at Duke University were conducted using TAP liquid growth medium described by Gorman and Levine Proc. Natl. Acad. Sci. USA 1965, 54, 1665-1669 except that CuSO4.5H2O, normally included as a component of Hutner's trace element stock solution (Hutner et al. Proc. Am. Philos. Soc. 1950, 94, 152-170), was omitted. The TAP medium lacking Cu (TAP Cu minus) was prepared by adding 400 mg NH4Cl, 10 mL of 100× Tris-Acetate (242 g Tris-base and 100 mL glacial acetic acid in 1000 mL milli Q water), and 8.3 mL of 120.5× phosphate buffer (14.34 g K2HPO4 and 7.26 g KH2PO4 in 1000 mL milli Q water) to milli Q water to make a total volume of 1 liter. The medium was treated with 0.5 g Chelex 100 resin (Bio-Rad Analytical grade, 50-100 mesh, sodium form, cat#142-2822) by stirring at room temperature for 1 hour. 900 mL were decanted and 45.9 mg of CaCl2.2H2O, 90 mg of MgSO4.7H2O and 0.9 mL Hutner's trace elements lacking CuSO4.5H2O were added and the solution was filter-sterilized. Medium containing copper (TAP Cu plus) was prepared by adding CuCl2.2H2O to the TAP Cu minus medium at 20 μM. Test compounds were dissolved in dimethylsulfoxide (DMSO) at 2 mg/mL then dilutions in TAP Cu minus and TAP Cu plus media were prepared in sterilized microcentrifuge tubes at 2 μg/mL. 100 μL aliquots of diluted compound were dispensed into flat-bottomed 96-well microtiter plates. C. reinhardtii was maintained under 12 h of light on TAP agar plates at 18° C. A loopful of cells was added to 50 mL of TAP Cu minus medium and the culture incubated with shaking at 200 rpm at 27° C. for 24 h. The culture (10 to 20 mL aliquot) was centrifuged in a bench centrifuge at 2000 rpm for 2 min. The resulting cell pellet was resuspended in 5 mL sterile milli Q water (which had been treated with Chelex 100 resin using 0.5 g resin per liter of water by stirring at room temperature for 1 h), and recentrifuged. The cells were resuspended in TAP Cu minus medium, and the suspension adjusted to 2×10^5 spores per mL. Microtiter plates containing compounds as described above were inoculated with 100 μL of this cell suspension and the plates incubated at 27° C. for 48 h before assessing algal growth by measuring light scattering in a NepheloStar plate-reader. Growth inhibition was determined by comparing growth in the presence of test compound with growth in control wells lacking test compound. Hydrazones and their isolated metal complexes were compared with respect to their in vitro activity toward C. reinhardtii and the cyanobacterium (blue-green alga) Synechocystis sp. strain 6803. Metal complexes of hydrazones were prepared by precipitation from ethanol with various metal salts at 1:1, 2:1 or 3:1 molar ratios, as described in general by Ainscough, Brodie, Dobbs, Ranford, and Waters (Inorganica Chimica Acta 1998, 267, 27-38, which is expressly incorporated by reference herein). In vitro assays against C. reinhardtii were conducted as described in Example 10 using TAP Cu minus medium. Growth inhibition was determined by comparing growth in the presence of test compound with growth in control wells lacking test compound. Results for growth inhibition of C. reinhardtii by hydrazones and corresponding isolated metal complexes (each at 1 μg/mL) are shown in Table 6.

[1] = tested on: Synechocystis sp. strain 6803; assay: Effect of copper on activity of hydrazones: in vitro growth inhibition of Synechocystis in BG-11 Cu minus / Cu plus medium (Example 11); type: cell-based; conditions: 72 h; for inhibition of growth at 0.05 µg/mL / inhibition of growth at 0.0125 µg/mL: Synechocystis, BG-11 Cu minus medium, read-out: % Inhn. Minus Copper Observed; for % Inhn. Plus Copper Observed: BG-11 Cu plus medium
Protocol: In vitro toxicity assays against the cyanobacterium (blue-green alga) Synechocystis sp. strain 6803 were conducted using BG-11 medium except that copper micronutrient, normally included as CuSO4.5H2O, was omitted. The medium, termed BG-11 Cu minus, was prepared by dissolving 1.5 g NaNO3, 40 mg K2HPO4, 6 mg citric acid, 1 mg Na2EDTA and 20 mg Na2CO3 in 1 liter of milli Q water and treating the solution with 0.5 g Chelex 100 resin (Bio-Rad Analytical grade, 50-100 mesh, sodium form, cat#142-2822) by stifling at room temperature for 1 h. 900 mL were decanted and 67.5 mg MgSO4.7H2O, 32.4 mg […], 5.4 mg ferric ammonium citrate and 0.9 mL trace metal mix A5 without copper (2.86 g H3BO3, 1.81 g MnCl2.4H2O, 222 mg ZnSO4.7H2O, 390 mg Na2MoO4.2H2O and Co(NO3)2.6H2O in 1 L Milli Q water) was added. The pH was adjusted to 7.1 and the medium was filter-sterilized. Medium containing copper (BG-11 Cu plus) was prepared by adding CuCl2.2H2O to the BG-11 Cu minus medium at 0.2 μM. Test compounds were dissolved in dimethylsulfoxide (DMSO) at 2 mg/mL then appropriate dilutions in BG-11 Cu minus and BG-11 Cu plus media were prepared in sterilized microcentrifuge tubes. 100 μL aliquots were dispensed into flat-bottomed 96-well microtiter plates. Synechocystis was maintained under 24 h of light on BG-11 agar plates at 27° C. A loopful of cells was added to 50 mL of BG-11 Cu minus growth medium and the culture was incubated with shaking at 200 rpm at 27° C. for 24 h. The culture (10 to 20 mL aliquot) was centrifuged in a bench centrifuge at 2400 rpm for 2 min. The resulting cell pellet was resuspended in 5 mL sterile milli Q water (which had been treated with Chelex 100 resin using 0.5 g resin per liter of water by stirring at room temperature for 1 h), and recentrifuged. The cells were resuspended in BG-11 Cu minus medium, and the suspension adjusted to 4×10^5 spores per mL. Microtiter plates containing compounds as described above were inoculated with 100 μL of this cell suspension and the plates incubated at 27° C. for 72 h before assessing algal growth by measuring light scattering in a NepheloStar plate reader. Growth inhibition was determined by comparing growth in the presence of test compound with growth in control wells lacking test compound. Results for growth inhibition by test compounds in BG-11 Cu plus medium (% Inhn Plus Copper Observed) were compared with predicted values (% Inhn Plus Copper Predicted) that were calculated using the formula set forth by S. R. Colby in Weeds 1967, 15, 20-22 based on-results obtained for the same compounds in BG-11 Cu minus medium (% Inhn Minus Copper Observed) and the inhibition attributed to copper chloride alone, as determined by comparing growth in copper-minus and copper-plus media without any test compound across experiments. Results illustrate that hydrazones and copper produce a synergistic algicidal effect towards Synechocystis.

Row | melting point | Structure (SMILES) | inhibition of growth at 1 µg/mL (C. reinhardtii CC-1928) | % Inhn. Plus Copper Observed (C. reinhardtii CC-1928) | inhibition of growth at 1 µg/mL (C. reinhardtii) | inhibition of growth at 0.05 µg/mL ([1]; Test Concn. 0.05 μg/mL) | % Inhn. Plus Copper Observed ([1]; Test Concn. 0.05 μg/mL) | inhibition of growth at 0.0125 µg/mL ([1]; Test Concn. 0.0125 μg/mL) | % Inhn. Plus Copper Observed ([1]; Test Concn. 0.0125 μg/mL) | Complex % Inhn. (C. reinhardtii; isolated metal complex 1 μg/mL)
1 | 245 to 246 °C | C/C(=N\NC(=O)c1cccc(Cl)c1)c1cc(Cl)cc(Cl)c1O [Compound 65] | -5% | 97% | -5% | – | – | – | – | –
2 | 258 to 260 °C | O=C(N/N=C/c1cc(Cl)cc(C(F)(F)F)c1O)c1ccccc1O [Compound 48] | 18% | 92% | – | 32% | 95% | – | – | –
3 | 215 to 216 °C | O=C(N/N=C/c1cccc(C(F)(F)F)c1O)c1ccc(Cl)cc1 [Compound 35] | 9% | 97% | – | 26% | 91% | – | – | –
4 | 260 to 262 °C | O=C(N/N=C/c1c(Cl)ccc(Cl)c1O)c1ccccc1O [Compound 46] | 0% | 92% | – | – | – | 37% | 80% | –
5 | 212 to 214 °C | Cc1cccc(C(=O)N/N=C/c2ccc(Cl)c(Cl)c2O)c1 [Compound 38] | 15% | 94% | – | 49% | 93% | – | – | –
6 | 241 to 251 °C | C/C(=N\NC(=O)c1ccc(Cl)cc1)c1cccc([N+](=O)[O-])c1O [Compound 23] | -37% | 89% | – | – | – | 27% | 92% | –
7 | 214 to 216 °C | Cc1cccc(C(=O)N/N=C/c2c(Cl)ccc(Cl)c2O)c1 [Compound 42] | 10% | 96% | – | 10% | 94% | – | – | –
8 | – | C/C(=N\NC(=O)c1cccc(C)c1)c1cc(Cl)cc(Cl)c1O.[Cl-].[Cl-].[Cu+2] [Compound 90] | – | – | – | – | – | – | – | 49%
9 | 276 to 280 °C | C/C(=N\NC(=O)c1ccc(Cl)cc1)c1cc(F)cc(F)c1O [Compound 62] | 0% | 95% | – | 60% | 95% | – | – | –
10 | – | O=C(N/N=C/c1cc(Cl)cc(Cl)c1O)c1ccc(Cl)cc1 [Compound 64] | -5% | 97% | -5% | – | – | – | – | –
11 | 232 to 234 °C | O=C(N/N=C/c1cc(Cl)cc(C(F)(F)F)c1O)c1ccc(Cl)cc1 [Compound 66] | -4% | 97% | -4% | – | – | – | – | –
12 | 242 to 245 °C | C/C(=N\NC(=O)c1ccccc1)c1cc(Br)cc(Br)c1O [Compound 61] | -56% | 94% | – | 61% | 96% | – | – | –
